Test results reported in patent US10227342B2 (ARIAD PHARMACEUTICALS, INC., priority 2014, dated 2019).

Experiments:
Format in all cases: cell-based
[1] = biological target: human EGFR exon 20 insertion ASV (V769_D770insASV) (Homo sapiens (Human), UniProt P00533, INS769ASV); assay: Ba/F3-EGFR-Exon20-ASV cell anti-proliferative assay (CellTiter 96 MTS, 72 h); conditions: Ba/F3-EGFR-Exon20-ASV cells;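 further: Ba/F3 cells bearing the EGFR exon 20 ASV insertion, a line able to proliferate without IL-3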
human EGFR exon 20 insertion ASV (V769_D770insASV), sequence (P00533 other isoform, or with tags, fused parts or gaps ins ASV behind 769): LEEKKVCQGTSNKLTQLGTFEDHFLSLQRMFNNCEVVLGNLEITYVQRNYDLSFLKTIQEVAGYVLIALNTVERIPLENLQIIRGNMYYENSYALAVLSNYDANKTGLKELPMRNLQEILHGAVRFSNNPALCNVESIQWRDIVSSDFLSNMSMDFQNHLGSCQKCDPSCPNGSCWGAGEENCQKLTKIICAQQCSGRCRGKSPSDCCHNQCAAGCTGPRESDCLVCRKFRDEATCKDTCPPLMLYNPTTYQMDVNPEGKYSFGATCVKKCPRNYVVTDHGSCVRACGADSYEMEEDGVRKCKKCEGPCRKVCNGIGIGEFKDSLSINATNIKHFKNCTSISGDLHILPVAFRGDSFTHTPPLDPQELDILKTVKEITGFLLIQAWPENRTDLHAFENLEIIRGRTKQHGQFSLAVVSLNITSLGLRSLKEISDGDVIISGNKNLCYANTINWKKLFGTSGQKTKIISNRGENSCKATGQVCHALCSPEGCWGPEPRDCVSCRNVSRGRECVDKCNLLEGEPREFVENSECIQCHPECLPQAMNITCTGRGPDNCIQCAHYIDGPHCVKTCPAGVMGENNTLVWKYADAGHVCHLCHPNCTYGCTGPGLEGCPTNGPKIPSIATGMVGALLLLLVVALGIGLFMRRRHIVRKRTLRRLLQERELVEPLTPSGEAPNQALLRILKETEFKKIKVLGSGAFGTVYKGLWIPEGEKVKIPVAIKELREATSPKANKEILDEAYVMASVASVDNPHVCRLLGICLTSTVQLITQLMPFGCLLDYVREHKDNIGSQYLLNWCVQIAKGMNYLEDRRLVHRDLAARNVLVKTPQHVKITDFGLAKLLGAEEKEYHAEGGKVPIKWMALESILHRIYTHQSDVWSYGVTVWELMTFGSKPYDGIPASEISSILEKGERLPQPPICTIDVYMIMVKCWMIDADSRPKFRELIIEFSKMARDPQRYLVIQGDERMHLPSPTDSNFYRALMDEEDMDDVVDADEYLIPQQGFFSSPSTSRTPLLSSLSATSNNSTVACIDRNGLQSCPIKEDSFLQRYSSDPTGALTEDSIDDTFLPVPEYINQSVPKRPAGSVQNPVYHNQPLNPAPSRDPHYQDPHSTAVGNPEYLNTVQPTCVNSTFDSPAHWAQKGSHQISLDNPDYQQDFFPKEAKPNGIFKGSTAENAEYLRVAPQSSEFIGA
Description: (§1) Ba/F3 cells expressing EGFR exon 20 insertions (named Ba/F3-EGFR-Exon20-NPG or Ba/F3-EGFR-Exon20-ASV) can proliferate in the absence of IL-3. The anti-proliferative activity of compounds were determined as follows: BaF3-EGFR-Exon20 cells (NPG or ASV) seeded in 96 well plates (2500 cells/well) were treated with test compound (dissolved in DMSO) at a series of concentrations (4-fold dilution, top concentration: 10,000 nM). The plates were incubated for 72 h in a 37° C. incubator with 5% CO2, and the number of viable cells in each well were measured indirectly by CellTiter 96® Aqueous One Solution Cell Proliferation Assay (Promega) This assay is a colorimetric method for determining the number of viable cells through measurement of their metabolic activity by detection of enzymatic conversion of tetrazolium salts into blue formazan derivatives. Reagent (20 μL) was added into each well, and the plates were returned to the incubator for 2 h. The absorbance in each well was then measured at 490 nm using an Envision plate reader (Perkin Elmer).

[2] = biological target: human EGFR E746-A750 deletion and T790M Mutation (DT) (Homo sapiens (Human), UniProt P00533, DEL746-750/T790M); assay: Ba/F3-EGFR-Del/T790M cell anti-proliferative assay (CellTiter 96 MTS, 72 h); conditions: Ba/F3-EGFR-Del/T790M cells; read-out: EGFR exon 19 deletion and T790M mutation IC50
human EGFR E746-A750 deletion and T790M Mutation (DT), sequence (P00533 other isoform, or with tags, fused parts or gaps T790M/del E746-A750): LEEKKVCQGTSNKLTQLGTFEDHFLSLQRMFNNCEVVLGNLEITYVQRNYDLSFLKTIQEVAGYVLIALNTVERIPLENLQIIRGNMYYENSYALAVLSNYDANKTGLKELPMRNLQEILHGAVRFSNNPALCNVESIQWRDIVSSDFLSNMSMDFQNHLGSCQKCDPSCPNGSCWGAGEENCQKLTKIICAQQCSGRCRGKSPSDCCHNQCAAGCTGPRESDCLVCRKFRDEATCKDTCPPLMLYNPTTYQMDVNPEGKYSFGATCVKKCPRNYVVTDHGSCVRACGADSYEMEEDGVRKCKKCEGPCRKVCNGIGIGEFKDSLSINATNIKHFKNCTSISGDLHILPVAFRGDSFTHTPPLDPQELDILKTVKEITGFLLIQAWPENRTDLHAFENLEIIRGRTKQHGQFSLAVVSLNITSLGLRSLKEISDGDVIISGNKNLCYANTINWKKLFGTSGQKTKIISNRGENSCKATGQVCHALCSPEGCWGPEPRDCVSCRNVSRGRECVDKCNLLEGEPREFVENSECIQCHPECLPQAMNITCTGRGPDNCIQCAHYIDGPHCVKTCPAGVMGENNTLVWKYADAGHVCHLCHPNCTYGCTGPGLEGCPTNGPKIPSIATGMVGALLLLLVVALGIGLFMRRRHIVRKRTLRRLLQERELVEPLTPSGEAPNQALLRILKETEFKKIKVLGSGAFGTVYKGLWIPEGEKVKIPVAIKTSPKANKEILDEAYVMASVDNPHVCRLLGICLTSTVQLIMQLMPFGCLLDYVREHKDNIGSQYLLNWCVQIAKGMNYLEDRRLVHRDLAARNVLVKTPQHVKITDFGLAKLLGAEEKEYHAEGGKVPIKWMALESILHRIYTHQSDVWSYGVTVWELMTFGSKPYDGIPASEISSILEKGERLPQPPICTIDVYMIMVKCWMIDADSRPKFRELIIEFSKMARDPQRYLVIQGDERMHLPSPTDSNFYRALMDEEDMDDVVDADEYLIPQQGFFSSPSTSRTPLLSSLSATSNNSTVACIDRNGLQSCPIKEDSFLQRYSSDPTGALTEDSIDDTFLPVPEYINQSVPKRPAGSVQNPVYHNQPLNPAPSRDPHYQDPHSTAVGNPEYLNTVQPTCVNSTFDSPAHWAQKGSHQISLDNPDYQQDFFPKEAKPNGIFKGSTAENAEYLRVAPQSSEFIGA

[3] = biological target: human EGFR L858R and T790M double mutation (LT) (Homo sapiens (Human), UniProt P00533, L858R/T790M); assay: Ba/F3-EGFR L858R/T790M cell anti-proliferative assay (CellTiter 96 MTS, 72 h); conditions: Ba/F3-EGFR L858R/T790M cells; read-out: EGFR exon 21 L858R and T790M mutation IC50;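 further: Ba/F3 cells carrying the EGFR L858R/T790M double mutant are able to grow without IL-3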
human EGFR L858R and T790M double mutation (LT), sequence (P00533 25-1210 T790M/L858R): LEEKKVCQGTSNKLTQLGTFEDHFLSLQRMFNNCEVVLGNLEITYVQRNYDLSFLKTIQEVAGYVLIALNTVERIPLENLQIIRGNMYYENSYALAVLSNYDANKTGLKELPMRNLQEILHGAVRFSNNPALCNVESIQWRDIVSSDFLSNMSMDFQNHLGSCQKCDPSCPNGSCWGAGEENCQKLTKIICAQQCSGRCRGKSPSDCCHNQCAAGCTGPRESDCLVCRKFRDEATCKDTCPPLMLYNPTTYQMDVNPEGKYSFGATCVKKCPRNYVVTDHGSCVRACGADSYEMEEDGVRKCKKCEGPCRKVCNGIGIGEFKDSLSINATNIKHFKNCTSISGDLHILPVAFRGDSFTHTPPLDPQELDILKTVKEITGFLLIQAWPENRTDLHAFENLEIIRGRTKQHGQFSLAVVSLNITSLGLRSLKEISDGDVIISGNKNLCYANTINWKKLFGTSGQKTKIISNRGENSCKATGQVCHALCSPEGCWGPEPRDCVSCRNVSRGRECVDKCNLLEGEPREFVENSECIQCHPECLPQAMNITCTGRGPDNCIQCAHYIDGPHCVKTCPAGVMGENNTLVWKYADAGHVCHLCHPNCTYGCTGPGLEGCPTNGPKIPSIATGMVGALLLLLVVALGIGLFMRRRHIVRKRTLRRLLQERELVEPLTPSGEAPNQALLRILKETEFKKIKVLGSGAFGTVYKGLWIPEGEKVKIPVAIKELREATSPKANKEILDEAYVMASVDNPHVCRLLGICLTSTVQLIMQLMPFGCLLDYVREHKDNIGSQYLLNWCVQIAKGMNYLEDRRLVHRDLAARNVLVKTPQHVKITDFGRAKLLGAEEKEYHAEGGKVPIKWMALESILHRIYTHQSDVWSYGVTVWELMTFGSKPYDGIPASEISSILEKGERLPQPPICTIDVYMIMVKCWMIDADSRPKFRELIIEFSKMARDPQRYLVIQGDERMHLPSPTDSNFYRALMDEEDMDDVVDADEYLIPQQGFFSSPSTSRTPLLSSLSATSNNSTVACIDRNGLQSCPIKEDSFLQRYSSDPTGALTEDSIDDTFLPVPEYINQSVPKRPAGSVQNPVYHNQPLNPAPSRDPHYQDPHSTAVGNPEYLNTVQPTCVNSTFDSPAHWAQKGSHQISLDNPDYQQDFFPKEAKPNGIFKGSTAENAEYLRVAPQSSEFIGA
Description: An expression vector, pLVX-IRES puro (Clontech) coding for human EGFR L858R and T790M double mutation, was transfected into HEK293 cells by the Trans-Lentiviral ORF Packaging System (Thermo Scientific), to produce virus encoding EGFR L858R and T790M double mutations. […] Ba/F3 cells expressing EGFR L858R and T790M double mutation (named Ba/F3-EGFR L858R/T790M) can proliferate in the absence of IL-3. The anti-proliferative activity of compounds was determined as follows: BaF3-EGFR L858R/T790M cells seeded in 96 well plates (2500 cells/well) were treated with test compound (dissolved in DMSO) at a series of concentrations (4-fold dilution, top concentration: 10,000 nM). The plates were incubated for 72 h in a 37° C. incubator with 5% CO2, and the number of viable cells in each well were measured indirectly by CellTiter 96® Aqueous One Solution Cell Proliferation Assay (Promega; this assay is a colorimetric method for determining the number of viable cells through measurement of their metabolic activity by detection of enzymatic conversion of tetrazolium salts into blue formazan derivatives). Reagent (20 μL) was added into each well, and the plates were returned to the incubator for 2 h. The absorbance in each well was then measured at 490 nm using an Envision plate reader (Perkin Elmer).

[4] = biological target: Her2 exon 20 YVMA insertion (A775_G776ins YVMA) (Homo sapiens (Human), UniProt P04626, INS775YVMA); assay: Ba/F3-Her2 Exon20 YVMA cell anti-proliferative assay (CellTiter 96 MTS, 72 h); conditions: Ba/F3-Her2 Exon20 YVMA cells
Her2 exon 20 YVMA insertion (A775_G776ins YVMA), sequence (P04626 other isoform, or with tags, fused parts or gaps ins YVMA behind 775): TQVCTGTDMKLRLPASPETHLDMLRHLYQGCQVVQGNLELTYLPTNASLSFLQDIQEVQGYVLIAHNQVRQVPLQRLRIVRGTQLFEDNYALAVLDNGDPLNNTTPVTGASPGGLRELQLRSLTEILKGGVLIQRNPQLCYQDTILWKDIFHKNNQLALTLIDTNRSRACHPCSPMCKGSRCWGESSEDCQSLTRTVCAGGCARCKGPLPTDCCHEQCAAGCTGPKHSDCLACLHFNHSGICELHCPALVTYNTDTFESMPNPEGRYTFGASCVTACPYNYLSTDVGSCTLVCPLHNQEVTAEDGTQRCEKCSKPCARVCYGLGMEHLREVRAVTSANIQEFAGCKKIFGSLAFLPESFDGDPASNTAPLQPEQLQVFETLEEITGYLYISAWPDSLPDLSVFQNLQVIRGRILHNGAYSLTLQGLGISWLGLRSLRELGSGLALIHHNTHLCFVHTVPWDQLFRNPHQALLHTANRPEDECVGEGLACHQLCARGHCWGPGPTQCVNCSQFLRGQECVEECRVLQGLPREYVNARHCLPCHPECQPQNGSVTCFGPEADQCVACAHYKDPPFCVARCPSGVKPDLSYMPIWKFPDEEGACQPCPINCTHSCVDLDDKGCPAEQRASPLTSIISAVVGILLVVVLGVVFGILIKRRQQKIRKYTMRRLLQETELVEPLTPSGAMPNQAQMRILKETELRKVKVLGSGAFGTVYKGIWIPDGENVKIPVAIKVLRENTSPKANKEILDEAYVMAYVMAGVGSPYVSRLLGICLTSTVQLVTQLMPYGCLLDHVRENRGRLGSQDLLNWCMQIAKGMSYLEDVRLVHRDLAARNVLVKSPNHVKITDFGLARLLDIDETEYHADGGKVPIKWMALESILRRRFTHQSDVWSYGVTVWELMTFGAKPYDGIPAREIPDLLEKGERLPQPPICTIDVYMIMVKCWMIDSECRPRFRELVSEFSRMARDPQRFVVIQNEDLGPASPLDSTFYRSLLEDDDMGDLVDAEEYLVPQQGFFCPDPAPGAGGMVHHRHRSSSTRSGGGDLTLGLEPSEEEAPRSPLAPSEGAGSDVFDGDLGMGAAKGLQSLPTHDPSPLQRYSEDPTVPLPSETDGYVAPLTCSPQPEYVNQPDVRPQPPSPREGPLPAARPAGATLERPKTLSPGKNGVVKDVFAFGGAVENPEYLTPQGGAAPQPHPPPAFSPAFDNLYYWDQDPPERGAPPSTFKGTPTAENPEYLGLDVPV
Source text: Ba/F3 cells expressing Her2 Exon20 YVMA insertions (named Ba/F3-Her2 Exon20 YVMA) can proliferate in the absence of IL-3.

[5] = biological target: human EGFR exon 20 insertion NPG (H773_V774insNPG) (Homo sapiens, UniProt P00533, INS773NPG, cells depend on it); assay: Ba/F3-EGFR-Exon20-NPG cell anti-proliferative assay (CellTiter 96 MTS, 72 h); conditions: read-out: EGFR exon 20 NPG insertion IC50
Description: as §1

SMILES | IC50 [1] | IC50 [2] | IC50 [3] | IC50 [4] | IC50 [5]
C=CC(=O)Nc1cc(Nc2nccc(-c3cn(CC(N)=O)c4ccccc34)n2)c(OC)cc1N(C)CCN(C)C [Example 70, N-(5-((4-(1-(2-amino-2-oxoethyl)-1H-indol-3-yl)pyrimidin-2-yl)amino)-2-((2-(dimethylamino)ethyl)(methyl)amino)-4-methoxyphenyl)acrylamide] | < 100 nM | < 100 nM | < 100 nM | 100 to 500 nM | 
C=CC(=O)Nc1cc(Nc2ncc(CC)c(-c3cn(CC(N)=O)c4ccccc34)n2)c(OC)cc1N(C)CCN(C)C [Example 71, N-(5-((4-(1-(2-amino-2-oxoethyl)-1H-indol-3-yl)-5-ethylpyrimidin-2-yl)amino)-2-((2-(dimethylamino)ethyl)(methyl)amino)-4-methoxyphenyl)acrylamide] | < 100 nM | < 100 nM | < 100 nM | 100 to 500 nM | 
C=CC(=O)Nc1cc(Nc2ncc(CC)c(-c3cn(CC(=O)NC)c4ccccc34)n2)c(OC)cc1N(C)CCN(C)C [Example 72, N-(2-((2-(dimethylamino)ethyl)(methyl)amino)-5-((5-ethyl-4-(1-(2-(methylamino)-2-oxoethyl)-1H-indol-3-yl)pyrimidin-2-yl)amino)-4-methoxyphenyl)acrylamide] | < 100 nM | < 100 nM | < 100 nM | 100 to 500 nM | 
C=CC(=O)Nc1cc(Nc2nccc(-c3cn(C)c4cc(C(=O)OC(C)C)ccc34)n2)c(OC)cc1N(C)CCN(C)C [Example 84, isopropyl 3-(2-((5-acrylamido-4-((2-(dimethylamino)ethyl)(methyl)amino)-2-methoxyphenyl)amino)pyrimidin-4-yl)-1-methyl-1H-indole-6-carboxylate] | 500 to 1000 nM | < 100 nM | < 100 nM | 500 to 1000 nM | 
C=CC(=O)Nc1cc(Nc2nccc(-c3cn(C)c4c(C(=O)OC(C)C)cccc34)n2)c(OC)cc1N(C)CCN(C)C [Example 85, isopropyl 3-(2-((5-acrylamido-4-((2-(dimethylamino)ethyl)(methyl)amino)-2-methoxyphenyl)amino)pyrimidin-4-yl)-1-methyl-1H-indole-7-carboxylate] | 100 to 500 nM | < 100 nM | < 100 nM | 100 to 500 nM | 
C=CC(=O)Nc1cc(Nc2nccc(-c3c(C(=O)OC)n(C)c4ccccc34)n2)c(OC)cc1N(C)CCN(C)C [Example 86, methyl 3-(2-((5-acrylamido-4-((2-(dimethylamino)ethyl)(methyl)amino)-2-methoxyphenyl)amino)pyrimidin-4-yl)-1-methyl-1H-indole-2-carboxylate] | < 100 nM | < 100 nM | < 100 nM | 500 to 1000 nM | 
C=CC(=O)Nc1cc(Nc2nccc(-c3c(C#N)n(C)c4ccccc34)n2)c(OC)cc1N(C)CCN(C)C [Example 88, N-(5-((4-(2-cyano-1-methyl-1H-indol-3-yl)pyrimidin-2-yl)amino)-2-((2-(dimethylamino)ethyl)(methyl)amino)-4-methoxyphenyl)acrylamide] | < 100 nM | < 100 nM | < 100 nM | 100 to 500 nM | 
C=CC(=O)Nc1cc(Nc2nccc(-c3cn(C)c4cc(C#N)ccc34)n2)c(OC)cc1N(C)CCN(C)C [Example 89, N-(5-((4-(6-cyano-1-methyl-1H-indol-3-yl)pyrimidin-2-yl)amino)-2-((2-(dimethylamino)ethyl)(methyl)amino)-4-methoxyphenyl)acrylamide] | < 100 nM | < 100 nM | < 100 nM | 100 to 500 nM | 
C=CC(=O)Nc1cc(Nc2ncc(C#N)c(-c3nn(C)c4ccccc34)n2)c(OC)cc1N(C)CCN(C)C [Example 98, N-(5-((5-cyano-4-(1-methyl-1H-indazol-3-yl)pyrimidin-2-yl)amino)-2-((2-(dimethylamino)ethyl)(methyl)amino)-4-methoxyphenyl)acrylamide] | < 100 nM | < 100 nM |  | < 100 nM | < 100 nM
